Data from patent US8889705B2, “Noscapine analogs and their use in treating cancers” (Emory University, priority 2007, dated 2014).
pIC50: −log10 of the molar value.

Columns and labels:
CEM cells [1] = assay: In vitro cell proliferation MTS assay; format: cell-based; conditions: Homo sapiens, CCRF-CEM, 72 hours
Method: (§1) Suspension cells (CEM, CEMNLB100 and CEM/VM-1-5) were cultured in RPMI-1640 media containing 10% FBS and then seeded into 96-well plates at a density of 5×10^3 cells per well and were treated with increasing gradient concentrations of 9-nitro-nos for 72 hours. Measurement of cell proliferation was performed colorimetrically by 3-(4,5-dimethylthiazol-2-yl)-5-(3-carboxymethoxyphenyl)-2-(4-sulphophenyl)-2H-tetrazolium, inner salt (MTS) assay, using the CellTiter96 AQueous One Solution Reagent (Promega, Madison, Wis.). Cells were exposed to MTS for 3 hours and absorbance was measured using a microplate reader (Molecular Devices, Sunnyvale, Calif.) at an optical density (OD) of 490 nm. The percentage of cell survival as a function of drug concentration for both the assays was then plotted to determine the IC50 value, which stands for the drug concentration needed to prevent cell proliferation by 50%.
as §1, with “(CEM)” for “(CEM, CEMNLB100 and CEM/VM-1-5)”, “were” for “were cultured in RPMI-1640 media containing 10% FBS and then”, “increasing” for “increasing gradient”, “all halogenated analogs” for “9-nitro-nos”

CEM/VLB100 cells [2] = assay: In vitro cell proliferation MTS assay; format: cell-based; conditions: Homo sapiens, CEM/VLB100, 72 hours
Method: as §1

CEM/VM-1-5 cells = assay: In vitro cell proliferation MTS assay; format: cell-based; conditions: Homo sapiens, CEM/VM-1-5, 72 hours
Method: as §1

1A9/PTX22 cells = assay: TUNEL assay for apoptosis (flow cytometry); format: cell-based, human; conditions: 1A9/PTX22, 50 μM, 72 hours
Method: DNA strand breaks were identified by using the TUNEL assay as described. In brief, 1A9/PTX22 cells were incubated with 50 μM 9-nitro-nos for 72 hours. Cells were pelleted and washed with ice-cold PBS twice. Cells were then fixed in 1% paraformaldehyde, and apoptosis was detected using the APO-BrdU TUNEL Assay Kit from Molecular Probes (Eugene, Oreg.) according to the manufacturer's instructions. This assay was run on a flow cytometer equipped with a 488 nm argon laser as the light source. Propidium iodide (total cellular DNA) and Alexa-Fluor 488 (apoptotic cells) were the two dyes used. PI fluoresces at about 623 nm and Alexa-Fluor 488 at about 520 nm when excited at 488 nm. […] The gating display was the standard dual parameter DNA doublet discrimination display with the DNA area signal on the Y-axis and the DNA width signal on the X-axis. From this display, a gate was generated around the non-clumped cells and the second gated dual parameter display was generated with the DNA (linear red fluorescence) on the X-axis and the Alexa-Fluor 488 (log green fluorescence) on the Y-axis. Apoptotic cells were subsequently counted as those expressing high Alexa-Fluor 488 fluorescence. Confocal micrographs were also obtained for the TUNEL-stained cells using a 63× objective.

[3] = test system: CEM, CEM/VLB100, CEM/VM-1-5, 1A9 and 1A9/PTX22 cells; assay: Immunofluorescence microscopy (microtubule and nuclear morphology); format: cell-based, human; conditions: 72 hours
Method: Cells adhered to poly-L-lysine coated coverslips were treated with 9-nitro-nos for 72 hours. After treatment, cells were fixed with cold (−20° C.) methanol for 5 min and then washed with phosphate-buffered saline (PBS) for 5 min. Non-specific sites were blocked by incubating with 100 μl of 2% BSA in PBS at 37° C. for 15 min. A mouse monoclonal antibody against α-tubulin (DM1A, Sigma) was diluted 1:500 in 2% BSA/PBS (100 μl) and incubated with the coverslips for 2 hours at 37° C. Cells were then washed with 2% BSA/PBS for 10 min at room temperature before incubating with a 1:200 dilution of a fluorescein-isothiocyanate (FITC)-labeled goat anti-mouse IgG antibody (Jackson ImmunoResearch, Inc., West Grove, Pa.) at 37° C. for 1 hour. Coverslips were then rinsed with 2% BSA/PBS for 10 min and incubated with propidium iodide (0.5 μg/ml) for 15 min at room temperature before they were mounted with Aquamount (Lerner Laboratories, Pittsburgh, Pa.) containing 0.01% 1,4-diazobicyclo(2,2,2)octane (DABCO, Sigma). Cells were then examined using confocal microscopy for microtubule morphology, and nuclear morphology to visualize DNA fragmentation (at least 100 cells were examined per condition).

CEM/VLB100 cells [4] = assay: Cell cycle analysis (propidium iodide, flow cytometry); format: cell-based, human; conditions: CEM/VLB100, 25 μM
Method: (§2) The flow cytometric evaluation of the cell cycle status was performed as described previously (Zhou et al., 2003). Briefly, 2×10^6 cells were centrifuged, washed twice with ice-cold PBS, and fixed in 70% ethanol. Tubes containing the cell pellets were stored at 4° C. for at least 24 hours. Cells were then centrifuged at 1000×g for 10 min and the supernatant was discarded. The pellets were washed twice with 5 ml of PBS and then stained with 0.5 ml of propidium iodide (0.1% in 0.6% Triton-X in PBS) and 0.5 ml of RNase A (2 mg/ml) for 45 minutes in dark. Samples were then analyzed on a FACSCalibur flow cytometer (Beckman Coulter Inc., Fullerton, Calif.).

CEM cells [5] = assay: as above; format: cell-based, human; conditions: 25 μM
Method: as §2

SMILES: COc1ccc2c(c1OC)C(=O)O[C@@H]2[C@H]1c2c(c([N+](=O)[O-])c3c(c2OC)OCO3)CCN1C [9-nitro-nos, (S)-6,7-dimethoxy-3-((R)-4-methoxy-6-methyl-9-nitro-5,6,7,8-tetrahydro-[1,3]dioxolo[4,5-g]isoquinolin-5-yl)isobenzofuran-1(3H)-one]
- pIC50 (CEM cells [1]): 5.00
- pIC50 (CEM/VLB100 cells [2]): 5.09
- pIC50 (CEM/VM-1-5 cells): 5.16
- TUNEL-positive cells (1A9/PTX22 cells): 55.9%
- cellular and nuclear morphology (apoptosis) [3]: extensive terminal apoptotic figures with fragmented DNA pieces and perturbed microtubule arrays
- G0/G1 (CEM/VLB100 cells [4]; 0 h): 46.9%
- G2/M (CEM/VLB100 cells [4]; 0 h): 25.7%
- S (CEM/VLB100 cells [4]; 0 h): 17.6%
- Sub-G1 (CEM/VLB100 cells [4]; 0 h): 3.6%
- G0/G1 (CEM/VLB100 cells [4]; 24 h): 25.5%
- G2/M (CEM/VLB100 cells [4]; 24 h): 36.0%
- S (CEM/VLB100 cells [4]; 24 h): 17.7%
- Sub-G1 (CEM/VLB100 cells [4]; 24 h): 14.8%
- G0/G1 (CEM/VLB100 cells [4]; 48 h): 23.7%
- G2/M (CEM/VLB100 cells [4]; 48 h): 30.2%
- S (CEM/VLB100 cells [4]; 48 h): 9.3%
- Sub-G1 (CEM/VLB100 cells [4]; 48 h): 30.7%
- G0/G1 (CEM/VLB100 cells [4]; 72 h): 8.7%
- G2/M (CEM/VLB100 cells [4]; 72 h): 12.5%
- S (CEM/VLB100 cells [4]; 72 h): 4.5%
- Sub-G1 (CEM/VLB100 cells [4]; 72 h): 56.1%
- G0/G1 (CEM cells [5]; 0 h): 45.5%
- G2/M (CEM cells [5]; 0 h): 20.9%
- S (CEM cells [5]; 0 h): 25.0%
- Sub-G1 (CEM cells [5]; 0 h): 0.25%
- G0/G1 (CEM cells [5]; 24 h): 24.8%
- G2/M (CEM cells [5]; 24 h): 34.2%
- S (CEM cells [5]; 24 h): 10.0%
- Sub-G1 (CEM cells [5]; 24 h): 6.5%
- G0/G1 (CEM cells [5]; 48 h): 19.7%
- G2/M (CEM cells [5]; 48 h): 40.0%
- S (CEM cells [5]; 48 h): 8.1%
- Sub-G1 (CEM cells [5]; 48 h): 23.8%
- G0/G1 (CEM cells [5]; 72 h): 13.9%
- G2/M (CEM cells [5]; 72 h): 16.9%
- S (CEM cells [5]; 72 h): 8.9%
- Sub-G1 (CEM cells [5]; 72 h): 44.3%
